Measurements published in patent US8426174B2, “Method for the production of 2-butanol” (Butamax(TM) Advanced Biofuels LLC, priority 2007, dated 2013).

Legend:
[1] = test system: Lactobacillus plantarum PN0512; test: Growth of L. plantarum PN0512 in the presence of butanols at different temperatures; type: cell-based; parameters: key to Growth at 37° C. / Growth at 30° C. / Growth at 25° C.: +: growth observed as an increase in OD600.; −: no growth observed, i.e. no change in OD600
Experimental: Tolerance levels of bacterial strain Lactobacillus plantarum PN0512 (ATCC # PTA-7727) were determined at 25° C., 30° C. and 37° C. as follows. The strain was cultured in S30L medium (i.e., 10 mM ammonium sulfate, 5 mM potassium phosphate buffer, pH 7.0, 50 mM MOPS, pH 7.0, 2 mM MgCl2, 0.7 mM CaCl2, 50 μM MnCl2, 1 μM FeCl3, 1 μM ZnCl2, 1.72 μM CuCl2, 2.53 μM CoCl2, 2.42 μM Na2MoO4, 2 μM thiamine hydrochloride, 10 mM glucose, and 0.2% yeast extract). An overnight culture in the absence of any test compound was started in 15 mL of the S30L medium in a 150 mL flask, with incubation at 37° C. in a shaking water bath. The next morning, the overnight culture was diluted into three 500 mL flasks containing 150 mL of fresh medium to an initial OD600 of about 0.08. Each flask was incubated in a shaking water bath, one each at 25° C., 30° C. and 37° C. Each large culture was allowed to acclimate at the test temperature for at least 0.5 h. […] Growth was followed by measuring OD600 for six hours after addition of the compounds.

[2] = test system: Klebsiella pneumoniae glycerol dehydratase; test: Glycerol dehydratase butanediol dehydratase activity, crude cell free extract; type: biochemical; details: 10 mM meso-2,3-butanediol, 12 μM coenzyme B12, pH 8.2, 37° C.
Source text: Glycerol dehydratase (E.C. 4.2.1.30) and diol dehydratase (E.C. 4.2.1.28), while structurally related, are often distinguished in the art based on various differences that include substrate specificity. […] The recombinant E. coli strain KLP23/pSYCO12, comprising Klebsiella pneumoniae genes encoding the multiple subunits of glycerol dehydratase (alpha: SEQ ID NO:145 (coding region) and 146 (protein); beta: SEQ ID NO: 147 (coding region) and 148 (protein); and gamma: SEQ ID NO: 149 (coding region) and 150 (protein)) and Klebsiella pneumoniae genes encoding the multiple subunits of glycerol dehydratase reactivase (large subunit, SEQ ID NO: 151 (coding region) and 152 (protein); and small subunit, SEQ ID NO: 153 (coding region) and 154 (protein)), is described in Emptage et al. U.S. Pat. No. 6,514,733 and in WO 2003089621, which are herein incorporated by reference. A crude, cell free extract of KLP23/pSYCO12 was prepared by methods known to one skilled in the art. […] The formation of 2-butanone was monitored by HPLC (Shodex SH-1011 column and SH-G guard column with refractive index detection; 0.01 M H2SO4 as the mobile phase at a flow rate of 0.5 mL/min and a column temperature of 50° C.; 2-butanone retention time=40.2 min). The rate of 2-butanone formation by the glycerol dehydratase preparation was determined to be 0.4 nmol/min/mg of crude protein.

CCC(C)O (stereo not drawn) [2-butanol]
4.7%: concentration in which growth was observed ([1]; 30° C.)
5.2%: concentration in which growth was observed ([1]; 25° C.)
4.3%: concentration in which growth was observed ([1]; 37° C.)
4.9%: concentration in which growth was not observed ([1]; 30° C.)
−: Growth at 37° C. ([1]; 4.7 % w/v 2-butanol) | Growth at 30° C. ([1]; 4.9 % w/v 2-butanol) | Growth at 37° C. ([1]; 5.2 % w/v 2-butanol) | Growth at 25° C. ([1]; 5.6 % w/v 2-butanol) | Growth at 37° C. ([1]; 5.6 % w/v 2-butanol) | Growth at 37° C. ([1]; 6.0 % w/v 2-butanol) | Growth at 37° C. ([1]; 6.4 % w/v 2-butanol) | Growth at 37° C. ([1]; 7.3 % w/v 2-butanol)
+: Growth at 37° C. ([1]; 1.8 % w/v 2-butanol) | Growth at 37° C. ([1]; 2.1 % w/v 2-butanol) | Growth at 25° C. ([1]; 2.9 % w/v 2-butanol) | Growth at 30° C. ([1]; 2.9 % w/v 2-butanol) | Growth at 37° C. ([1]; 2.9 % w/v 2-butanol) | Growth at 37° C. ([1]; 3.1 % w/v 2-butanol) | Growth at 37° C. ([1]; 3.6 % w/v 2-butanol) | Growth at 25° C. ([1]; 3.8 % w/v 2-butanol) | Growth at 30° C. ([1]; 3.8 % w/v 2-butanol) | Growth at 37° C. ([1]; 3.8 % w/v 2-butanol) | Growth at 30° C. ([1]; 4.0 % w/v 2-butanol) | Growth at 25° C. ([1]; 4.3 % w/v 2-butanol) | Growth at 30° C. ([1]; 4.3 % w/v 2-butanol) | Growth at 37° C. ([1]; 4.3 % w/v 2-butanol) | Growth at 25° C. ([1]; 4.7 % w/v 2-butanol) | Growth at 30° C. ([1]; 4.7 % w/v 2-butanol) | Growth at 25° C. ([1]; 4.9 % w/v 2-butanol) | Growth at 25° C. ([1]; 5.2 % w/v 2-butanol) | Growth at 30° C. ([1]; […] w/v 2-butanol)
4.5%: concentration in which growth was not observed ([1]; 37° C.)

CC(O)C(C)O (stereo not drawn) [meso-2,3-butanediol]
0.4 nmol/min/mg of crude protein: rate of 2-butanone formation [2]
